These results are taken from patent publication US20240059658A1 (Emory University, priority 2019, published 2024).

The assay concerns EU-1. In words: WST cytotoxicity assay, cancer cell EU-1. It counts as cell-based, human. The following applies: Homo sapiens, EU-1, EU-1; no other cell line named in the cell; read-out: Cancer cell (EU-1) cytotoxicity IC50. On the procedure: This study used two ALL cell lines (EU-1 and EU-3) and three NB cell lines (NB-1643, SHEP1 and LA1-55N). All 5 cancer cell lines were established from pediatric ALL or NB patients and were well-characterized for their expression of MDM2 and p53-status, as reported previously. All cell lines were grown in standard culture medium (RPMI 1640 containing 10% FBS, 2 mmol/L L-glutamine, 50 U penicillin and 50 μg/mL streptomycin) at 37° C. in a humidified atmosphere containing 5% CO2.
The cytotoxic effect of MX 69 and MX69 analogs on cancer cells was determined using the water-soluble tetrazolium salt (WST) assay. Briefly, cells cultured in 96-well microtiter plates were treated with different concentrations of AQ-101 for a 20-h period. WST (25 μg/well) was then added and incubation continued for an additional 4 h, after which optical density (OD) was read with a microplate reader (test wavelength of 450 nm; reference wavelength of 620 nm).

Structures are written as SMILES.

Take `Cc1ccc(NS(=O)(=O)c2ccc3c(c2)[C@H]2OCC[C@H]2C(c2ccc(C(C)C)cc2)N3)cc1C` (some centres unmarked) [Compound 69L31]: the IC50 (as a rule, the concentration that gives 50% inhibition) was 4.24 µM.
The value for `CCO[C@H]1C[C@H](c2ccc(C(=O)OC)cc2)Nc2ccc(S(=O)(=O)Nc3ccc(C)c(C)c3)cc21` [Compound 69L32] was 7.28 µM; that for `COC(=O)c1ccc(C2Nc3c(Cl)cc(S(=O)(=O)Nc4ccc(C)c(C)c4)cc3C3OCC[C@@H]23)cc1` (some centres unmarked) [Compound 69L33] was over 50 µM.
The value for `COC(=O)c1ccc(C2Nc3ccc(S(=O)(=O)Nc4ccc(C)c(C)c4)cc3C3NCC[C@@H]23)cc1` (some centres unmarked) [Compound 69L34] was 3.44 µM; that for `COC(=O)c1ccc([C@H]2Nc3ccc(S(=O)(=O)Nc4ccc(C)c(C)c4)cc3C3NCC[C@H]32)cc1` (some centres unmarked) [Compound 69L35] was 4.86 µM.
With `Cc1ccc(NS(=O)(=O)c2ccc3c(c2)C2OCC[C@H]2[C@@H](c2c[nH]c4ccccc24)N3)cc1C` (some centres unmarked) [Compound 69L36] the figure was 9.2 µM; with `Cc1ccc(NS(=O)(=O)c2ccc3c(c2)C2NCC[C@H]2C(c2c[nH]c4ccccc24)N3)cc1C` (some centres unmarked) [Compound 69L37], 4.81 µM; with `Cc1ccc(NS(=O)(=O)c2ccc3c(c2)C(O)C[C@H](c2ccc(C(=O)O)cc2)N3)cc1C` (some centres unmarked) [Compound 69L40], over 50 µM.
Turning to `Cc1ccc(NS(=O)(=O)c2ccc3c(c2)C2NCC[C@H]2[C@H](c2ccc(C(=O)O)cc2)N3)cc1C` (some centres unmarked) [Compound 69L41], the IC50 is over 50 µM.
With `Cc1ccc(NS(=O)(=O)c2ccc3c(c2)C2[C@@H](CCN2C(=O)OC(C)(C)C)C(c2ccc(S(C)(=O)=O)cc2)N3)cc1C` (some centres unmarked) [Compound 69L42], the IC50 is 19.9 µM.
The value for `Cc1ccc(NS(=O)(=O)c2ccc3c(c2)C2NCC[C@H]2[C@@H](c2ccc(S(C)(=O)=O)cc2)N3)cc1C` (some centres unmarked) [Compound 69L43] was 12 µM.
With `Cc1ccc(NS(=O)(=O)c2ccc3c(c2)C2NCC[C@H]2[C@H](c2ccc(S(C)(=O)=O)cc2)N3)cc1C` (some centres unmarked) [Compound 69L44] the figure was 44.9 µM; with `CCOC1C[C@@H](c2ccc(C(C)=O)cc2)Nc2ccc(S(=O)(=O)Nc3ccc(C)c(C)c3)cc21` (some centres unmarked) [Compound 69L46], 6.5 µM.
Take `CC(=O)c1ccc([C@@H]2CC(O)c3cc(S(=O)(=O)Nc4ccc(C)c(C)c4)ccc3N2)cc1` (some centres unmarked) [Compound 69L47]: the IC50 worked out at 2.1 µM.
Take `CC(=O)c1ccc([C@H]2Nc3ccc(S(=O)(=O)Nc4ccc(C)c(C)c4)cc3C3NCC[C@H]32)cc1` (some centres unmarked) [Compound 69L49]: the IC50 is 4.6 µM.
The value for `CC(=O)c1ccc([C@@H]2Nc3ccc(S(=O)(=O)Nc4ccc(C)c(C)c4)cc3C3NCC[C@H]32)cc1` (some centres unmarked) [Compound 69L50] was 4.1 µM; that for `CC(=O)Nc1ccc(C2Nc3ccc(S(=O)(=O)Nc4ccc(C)c(C)c4)cc3C3OCC[C@@H]23)cc1` (some centres unmarked) [Compound 69L51] was 4.5 µM.
With `Cc1ccc(NS(=O)(=O)c2ccc3c(c2)C2OCC[C@H]2[C@@H](c2ccc(C(=O)C(C)C)cc2)N3)cc1C` (some centres unmarked) [Compound 69L52b] the figure was 1.4 to 1.6 µM.
The value for `Cc1ccc(NS(=O)(=O)c2ccc3c(c2)C2OCC[C@@H]2[C@@H](c2ccc(C(=O)C(C)C)cc2)N3)cc1C` (some centres unmarked) [Compound 69L52c] was 2.4 to 2.5 µM; that for `Cc1ccc(NS(=O)(=O)c2ccc3c(c2)C2OCC[C@@H]2[C@H](c2ccc(C(=O)C(C)C)cc2)N3)cc1C` (some centres unmarked) [Compound 69L52d] was 0.5 µM.
For `CC(=O)N1CCC([C@@H]2Nc3ccc(S(=O)(=O)Nc4ccc(C)c(C)c4)cc3C3OCC[C@H]32)CC1` (some centres unmarked) [Compound 69L57, 4-(1-acetylpiperidin-4-yl)-N-(3,4-dimethylphenyl)-2,3,3a,4,5,9b-hexahydrofuran[3,2-c]quinolone-8-sulfonamine], the IC50 was 10.8 µM.
The value for `Cc1ccc(NS(=O)(=O)c2ccc3c(c2)[C@H]2OCC[C@H]2C(c2ccc(C(=O)C4CC4)cc2)N3)cc1C` (some centres unmarked) [Compound 69L67] was 5.18 µM; that for `O=S(=O)(Nc1ccc(Br)c(Br)c1)c1ccc2c(c1)[C@H]1OCC[C@H]1[C@H](C1CCCCC1)N2` [Compound 69L68] was 5.1 µM; that for `Cc1ccc(NS(=O)(=O)c2ccc3c(c2)[C@H]2OCC[C@H]2C(c2ccc(C(=O)C4CC4)cc2)N3)cc1Cl` (some centres unmarked) [Compound 69L69] was 5.81 µM.
With `C=CC(=O)c1ccc(C2Nc3ccc(S(=O)(=O)Nc4ccc(C)c(C)c4)cc3[C@H]3OCC[C@@H]23)cc1` (some centres unmarked) [Compound 69L71] the figure was 30 µM.
With `CC(C)C(=O)c1ccc(C2Nc3ccc(S(=O)(=O)Nc4ccc(Br)c(Br)c4)cc3[C@H]3OCC[C@@H]23)cc1` (some centres unmarked) [Compound 69L74] the figure was 5.23 µM.
On to `CC(C)C(=O)c1ccc(C2Nc3ccc(S(=O)(=O)Nc4ccc(Cl)c(Cl)c4)cc3[C@H]3OCC[C@@H]23)cc1` (some centres unmarked) [Compound 69L76], for which the IC50 amounted to 5.59 µM.
Take `Cc1cc(NS(=O)(=O)c2ccc3c(c2)[C@H]2OCC[C@H]2C(c2ccc(C(=O)C(C)C)cc2)N3)ccc1Cl` (some centres unmarked) [Compound 69L77]: the IC50 came out at 6.29 µM.
With `Cc1ccc(NS(=O)(=O)c2ccc3c(c2)[C@H]2NCC[C@H]2[C@H](c2ccc(C(=O)C(C)C)cc2)N3)cc1C` [Compound 69L82] the figure was 29.7 µM; with `Cc1ccc(NS(=O)(=O)c2ccc3c(c2)C2CCC[C@H]2[C@H](c2ccc(C(O)C(C)C)cc2)N3)cc1C` (some centres unmarked) [Compound 69L86], 3.77 µM.
As to `Cc1ccc(NS(=O)(=O)c2ccc3c(c2)C2CCC[C@H]2[C@H](c2ccc(C(=O)C(C)C)cc2)N3)cc1C` (some centres unmarked) [Compound 69L88], the IC50 worked out at 6.97 µM.
The value for `Cc1cc(NS(=O)(=O)c2ccc3c(c2)C2OCC[C@H]2C(c2ccc(C(=O)C(C)C)cc2)N3)ccc1C(F)(F)F` (some centres unmarked) [Compound 69L89] was 7.2 µM; that for `Cc1cc(NS(=O)(=O)c2ccc3c(c2)C2OCC[C@H]2C(C2CCCCC2)N3)ccc1C(F)(F)F` (some centres unmarked) [Compound 69L90] was 3.26 µM.
The value for `O=S(=O)(Nc1ccc(C(F)(F)F)c(C(F)(F)F)c1)c1ccc2c(c1)C1OCC[C@H]1C(C1CCCCC1)N2` (some centres unmarked) [Compound 69L91] was over 10 µM; that for `Cc1ccc(NS(=O)(=O)c2ccc3[nH]c(-c4ccc(C(=O)C(C)C)cc4)c(I)c(=O)c3c2)cc1C` [Compound 69L97] was 9.36 µM.
With `CC(=O)c1ccc(C2Nc3ccc(S(=O)(=O)Nc4cccc(C(C)=O)c4)cc3[C@H]3OCC[C@@H]23)cc1` (some centres unmarked) [Compound 69L110] the figure was 0.27 µM.
As to `CC(=O)c1ccc(NS(=O)(=O)c2ccc3c(c2)[C@H]2OCC[C@H]2C(c2ccc(C(C)=O)cc2)N3)cc1` (some centres unmarked) [Compound 69L111], the IC50 worked out at 1.37 µM.
The value for `CC(=O)c1cccc(NS(=O)(=O)c2ccc3c(c2)[C@H]2OCC[C@H]2C(c2ccc(C(C)C)cc2)N3)c1` (some centres unmarked) [Compound 69L115] was 0.56 µM; that for `O=S(=O)(Nc1ccc2c(c1)CCO2)c1ccc2c(c1)[C@H]1OCC[C@H]1C(c1ccccc1)N2` (some centres unmarked) [Compound 69L118] was 0.15 µM; that for `CC(C)C(=O)c1cccc(C2Nc3ccc(S(=O)(=O)Nc4cccc(C(C)O)c4)cc3C3OCC[C@@H]23)c1` (some centres unmarked) [Compound 69L122] was over 10 µM.
The value for `CC(=O)c1cccc(C2CC(=O)c3cc(S(=O)(=O)Nc4ccc5c(c4)COC5)ccc3N2)c1` (centres unmarked) [Compound 69L124, 2-(3-acetylphenyl)-N-(1,3-dihydroisobenzofuran-5-yl)-4-oxo-1,2,3,4-tetrahydroquinoline-6-sulfonamide] was 0.46 µM; that for `CCC(=O)c1cccc(NS(=O)(=O)c2ccc3c(c2)C2OCC[C@H]2C(c2ccc(C(=O)C(C)C)cc2)N3)c1` (some centres unmarked) [Compound 69L125, 4-(4-isobutyrylphenyl)-N-(3-propionylphenyl)-2,3,3a,4,5,9b-hexahydrofuro[3,2-c]quinoline-8-sulfonimide] was 1.48 µM; that for `CCC(=O)c1cccc(NS(=O)(=O)c2ccc3c(c2)C(=O)CC(c2cccc(C(C)=O)c2)N3)c1` (centres unmarked) [Compound 69L126, 2-(3-acetylphenyl)-4-oxo-N-(3-propionylphenyl)-1,2,3,4-tetrahydro-quinoline-6-sulfonamide] was 1.14 µM.
The value for `O=S(=O)(Nc1ccc2c(c1)CCO2)c1ccc2c(c1)C1OCC[C@H]1C(c1ccc3c(c1)CCO3)N2` (some centres unmarked) [Compound 69L128] was 1.31 µM; that for `CCC(=O)c1cccc(NS(=O)(=O)c2ccc3c(c2)C(=O)CC(c2ccc4c(c2)CCO4)N3)c1` (centres unmarked) [Compound 69L129] was 0.65 µM; that for `CC(=O)c1cccc(NS(=O)(=O)c2ccc3c(c2)C2NCC[C@H]2C(c2ccc(C(=O)C(C)C)cc2)N3)c1` (some centres unmarked) [Compound 69L130] was over 10 µM.
Regarding `CC(C)C(=O)c1ccc(C2Nc3ccc(S(=O)(=O)Nc4cccc(C(C)C)c4)cc3[C@H]3OCC[C@@H]23)cc1` (some centres unmarked) [Compound 69L134], the IC50 turned out to be 6.53 µM.
On to `CC(=O)c1cccc(C2CC(=O)c3cc(S(=O)(=O)Nc4cccc(C(C)C)c4)ccc3N2)c1` (centres unmarked) [Compound 69L135], for which the IC50 stood at 0.15 µM.
As to `CC(C)C(=O)c1ccc(C2Nc3ccc(S(=O)(=O)Nc4cccc(C(C)(C)C)c4)cc3[C@H]3OCC[C@@H]23)cc1` (some centres unmarked) [Compound 69L136], the IC50 turned out to be 6.16 µM.
The value for `CC(C)c1cccc(NS(=O)(=O)c2ccc3c(c2)C(=O)CC(c2cccc(C(C)C)c2)N3)c1` (centres unmarked) [Compound 69L137] was 5 µM; that for `CC(C)c1cccc(C2CC(=O)c3cc(S(=O)(=O)Nc4ccc5c(c4)CCO5)ccc3N2)c1` (centres unmarked) [Compound 69L138] was 1.4 µM.
With `CC(C)C(=O)c1cccc(C2CC(=O)c3cc(S(=O)(=O)Nc4cccc(C(C)C)c4)ccc3N2)c1` (centres unmarked) [Compound 69L139] the figure was 0.66 µM; with `CC(C)C(=O)c1cccc(C2CC(=O)c3cc(S(=O)(=O)Nc4ccc5c(c4)CCO5)ccc3N2)c1` (centres unmarked) [Compound 69L140], 0.23 µM.
